Results reported in ChEMBL document CHEMBL1201861, “Genomics of Drug Sensitity in Cancer screening data, Wellcome Trust Sanger Institute”.
pIC50: −log10 of the molar value.

Key:
COR-L105 = assay: cells; assay type: functional, cell-based; conditions: Homo sapiens
Description: SANGER: Inhibition of human COR-L105 cell growth in a cell viability assay.

CP66-MEL = assay: cells; assay type: functional, cell-based; conditions: Homo sapiens;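 also: growth inhibition of CP66-MEL cells determined in a cell viability assay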
Description: SANGER: Inhibition of human CP66-MEL cell growth in a cell viability assay.

Ca9-22 = assay: cells; assay type: functional, cell-based; conditions: Homo sapiens;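 also: growth inhibition of Ca9-22 cells, read out with a cell viability assay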
Description: SANGER: Inhibition of human Ca9-22 cell growth in a cell viability assay.

DMS-273 = assay: cells; assay type: functional, cell-based; conditions: Homo sapiens
Description: SANGER: Inhibition of human DMS-273 cell growth in a cell viability assay.

DOK = assay: cells; assay type: functional, cell-based; conditions: Homo sapiens;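 also: cell viability assay read-out, values reflect inhibition of cell growth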
Description: SANGER: Inhibition of human DOK cell growth in a cell viability assay.

Detroit 562 = assay: cells; assay type: functional, cell-based; conditions: Homo sapiens;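 also: growth inhibition of human Detroit 562 cells, read out by a cell viability assay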
Description: SANGER: Inhibition of human Detroit562 cell growth in a cell viability assay.

ECC4 = assay: cells; assay type: functional, cell-based, Homo sapiens; conditions: Homo sapiens, ECC4;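 also: growth inhibition of ECC4 cells, read out with a cell viability assay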
Description: SANGER: Inhibition of human ECC4 cell growth in a cell viability assay.

EW-24 = assay: cells; assay type: functional, cell-based, Homo sapiens; conditions: Homo sapiens, EW-24;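 also: human EW-24 cancer cell line, growth inhibition read out via a cell viability assay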
Description: SANGER: Inhibition of human EW-24 cell growth in a cell viability assay.

HCC1395 = assay: cells; assay type: functional, cell-based; conditions: Homo sapiens;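 also: growth inhibition of HCC1395 cells, read out by a cell viability assay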
Description: SANGER: Inhibition of human HCC1395 cell growth in a cell viability assay.

HCC 2998 = assay: cells; assay type: functional, cell-based; conditions: Homo sapiens;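 also: growth inhibition of human HCC2998 cells, measured with a cell viability read-out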
Description: SANGER: Inhibition of human HCC2998 cell growth in a cell viability assay.

HT-29 = assay: cells; assay type: functional, cell-based; conditions: Homo sapiens;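 also: growth inhibition of human HT-29 cells, read out by a cell viability assay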
Description: SANGER: Inhibition of human HT-29 cell growth in a cell viability assay.

HuP-T3 = assay: cells; assay type: functional, cell-based; conditions: Homo sapiens;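 also: HuP-T3 cell growth inhibition, read out with a cell viability assay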
Description: SANGER: Inhibition of human HuP-T3 cell growth in a cell viability assay.

J82 = assay: cells; assay type: functional, cell-based; conditions: Homo sapiens;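 also: growth inhibition of J82 cells, read out with a cell viability assay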
Description: SANGER: Inhibition of human J82 cell growth in a cell viability assay.

JIYOYE = assay: cells; assay type: functional, cell-based, Homo sapiens; conditions: Homo sapiens, JIYOYE
Description: SANGER: Inhibition of human JiyoyeP-2003 cell growth in a cell viability assay.

LB647-SCLC = assay: cells; assay type: functional, cell-based, Homo sapiens; conditions: Homo sapiens, LB647-SCLC;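 also: cell growth inhibition, read out by a viability assay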
Description: SANGER: Inhibition of human LB647-SCLC cell growth in a cell viability assay.

MC-IXC = assay: cells; assay type: functional, cell-based; conditions: Homo sapiens;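 also: growth inhibition of MC-IXC cells, read out with a cell viability assay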
Description: SANGER: Inhibition of human MC-IXC cell growth in a cell viability assay.

MDA-MB-157 = assay: cells; assay type: functional, cell-based; conditions: Homo sapiens
Description: SANGER: Inhibition of human MDA-MB-157 cell growth in a cell viability assay.

MDA-MB-415 = assay: cells; assay type: functional, cell-based; conditions: Homo sapiens
ME-180 = assay: cells; assay type: functional, cell-based; conditions: Homo sapiens;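 also: cell viability assay measuring growth inhibition of ME-180 cells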
Description: SANGER: Inhibition of human ME-180 cell growth in a cell viability assay.

NB1 = assay: cells; assay type: functional, cell-based, Homo sapiens; conditions: Homo sapiens, NB1;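 also: reduction of NB1 cell proliferation, read out with a viability assay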
Description: SANGER: Inhibition of human NB1 cell growth in a cell viability assay.

NCI-H1694 = assay: cells; assay type: functional, cell-based, Homo sapiens; conditions: Homo sapiens, NCI-H1694;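 also: cell viability assay measuring inhibition of growth in human NCI-H1694 cells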
Description: SANGER: Inhibition of human NCI-H1694 cell growth in a cell viability assay.

NCI-H1963 = assay: cells; assay type: functional, cell-based, Homo sapiens; conditions: Homo sapiens, NCI-H1963;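 also: cell growth inhibition of the human line, determined with a cell viability assay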
Description: SANGER: Inhibition of human NCI-H1963 cell growth in a cell viability assay.

NCI-H2009 = assay: cells; assay type: functional, cell-based; conditions: Homo sapiens;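 also: cell viability assay measuring inhibition of NCI-H2009 cell growth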
Description: SANGER: Inhibition of human NCI-H2009 cell growth in a cell viability assay.

NCI-H2347 = assay: cells; assay type: functional, cell-based; conditions: Homo sapiens;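 also: growth inhibition of the cell line, read out with a cell viability assay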
Description: SANGER: Inhibition of human NCI-H2347 cell growth in a cell viability assay.

NCI-H345 = assay: cells; assay type: functional, cell-based, Homo sapiens; conditions: Homo sapiens, NCI-H345;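 also: growth inhibition of NCI-H345 cells measured with a cell viability assay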
Description: SANGER: Inhibition of human NCI-H345 cell growth in a cell viability assay.

NCI-H630 = assay: cells; assay type: functional, cell-based; conditions: Homo sapiens;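 also: growth inhibition of NCI-H630 cells, read out with a cell viability assay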
Description: SANGER: Inhibition of human NCI-H630 cell growth in a cell viability assay.

NCI-H650 = assay: cells; assay type: functional, cell-based; conditions: Homo sapiens;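 also: growth inhibition of NCI-H650 cells, read out by a viability assay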
Description: SANGER: Inhibition of human NCI-H650 cell growth in a cell viability assay.

NCI-H810 = assay: cells; assay type: functional, cell-based; conditions: Homo sapiens;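 also: IC50 reflects inhibition of cancer cell line growth, read out with a cell viability assay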
Description: SANGER: Inhibition of human NCI-H810 cell growth in a cell viability assay.

NCI-H889 = assay: cells; assay type: functional, cell-based, Homo sapiens; conditions: Homo sapiens, NCI-H889;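 also: cell growth inhibition of the cell line, read out with a viability assay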
Description: SANGER: Inhibition of human NCI-H889 cell growth in a cell viability assay.

SNU-16 = assay: cells; assay type: functional, cell-based, Homo sapiens; conditions: Homo sapiens, SNU-16;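 also: growth inhibition of human SNU-16 cells, determined with a cell viability readout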
Description: SANGER: Inhibition of human NCI-SNU-16 cell growth in a cell viability assay.

PA-1 = assay: cells; assay type: functional, cell-based; conditions: Homo sapiens;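 also: IC50 for suppression of PA-1 cell proliferation, determined with a cell viability read-out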
Description: SANGER: Inhibition of human PA-1 cell growth in a cell viability assay.

Panc1005 = assay: cells; assay type: functional, cell-based; conditions: Homo sapiens;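 also: growth inhibition of human PANC-10-05 cells, measured by a cell viability assay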
Description: SANGER: Inhibition of human PANC-10-05 cell growth in a cell viability assay.

RL = assay: cells; assay type: functional, cell-based, Homo sapiens; conditions: Homo sapiens, RL
Description: SANGER: Inhibition of human RL cell growth in a cell viability assay.

RL95-2 = assay: cells; assay type: functional, cell-based, Homo sapiens; conditions: Homo sapiens, RL95-2;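 also: RL95-2 growth inhibition determined through a cell viability readout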
Description: SANGER: Inhibition of human RL95-2 cell growth in a cell viability assay.

Raji = assay: cells; assay type: functional, cell-based, Homo sapiens; conditions: Homo sapiens, Raji;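 also: cell viability assay measuring inhibition of Raji cell growth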
Description: SANGER: Inhibition of human Raji cell growth in a cell viability assay.

S-117 = assay: cells; assay type: functional, cell-based; conditions: Homo sapiens
Description: SANGER: Inhibition of human S-117 cell growth in a cell viability assay.

SAS = assay: cells; assay type: functional, cell-based; conditions: Homo sapiens;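 also: growth inhibition of SAS cells, read out with a cell viability assay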
Description: SANGER: Inhibition of human SAS cell growth in a cell viability assay.

SF-295 = assay: cells; assay type: functional, cell-based; conditions: Homo sapiens;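 also: growth inhibition of SF-295 cells, read out with a cell viability assay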
Description: SANGER: Inhibition of human SF295 cell growth in a cell viability assay.

SK-N-AS = assay: cells; assay type: functional, cell-based; conditions: Homo sapiens;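 also: growth inhibition of human SK-N-AS cells, measured with a cell viability assay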
Description: SANGER: Inhibition of human SK-N-AS cell growth in a cell viability assay.

ST486 = assay: SANGER: Inhibition of human ST486 cell growth in a cell viability assay.; assay type: functional, cell-based; conditions: Homo sapiens, ST486
SW1088 = assay: cells; assay type: functional, cell-based; conditions: Homo sapiens;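 also: growth inhibition of human SW1088 cells, read out by a cell viability assay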
Description: SANGER: Inhibition of human SW1088 cell growth in a cell viability assay.

SW1990 = assay: cells; assay type: functional, cell-based; conditions: Homo sapiens
Description: SANGER: Inhibition of human SW1990 cell growth in a cell viability assay.

SW837 = assay: cells; assay type: functional, cell-based; conditions: Homo sapiens;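 also: growth inhibition of SW837 cells, determined with a cell viability assay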
Description: SANGER: Inhibition of human SW837 cell growth in a cell viability assay.

TALL-1 = assay: cells; assay type: functional, cell-based, Homo sapiens; conditions: Homo sapiens, TALL-1;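 also: growth inhibition of cultured human TALL-1 cells, read out by a cell viability assay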
Description: SANGER: Inhibition of human TALL-1 cell growth in a cell viability assay.

5637 = assay: cells; assay type: functional, cell-based; conditions: Homo sapiens
Description: SANGER: Inhibition of human 5637 cell growth in a cell viability assay.

639-V = assay: cells; assay type: functional, cell-based; conditions: Homo sapiens;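 also: growth inhibition of 639-V cells, read out with a cell viability assay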
Description: SANGER: Inhibition of human 639-V cell growth in a cell viability assay.

A 172 = assay: cells; assay type: functional, cell-based; conditions: Homo sapiens;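 also: growth inhibition of A172 cells, measured with a cell viability readout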
Description: SANGER: Inhibition of human A172 cell growth in a cell viability assay.

A2780 = assay: cells; assay type: functional, cell-based; conditions: Homo sapiens;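 also: growth inhibition of A2780 cells, read out with a cell viability assay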
Description: SANGER: Inhibition of human A2780 cell growth in a cell viability assay.

ABC-1 = assay: cells; assay type: functional, cell-based; conditions: Homo sapiens;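 also: growth inhibition of human ABC-1 cells, read out by a cell viability assay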
Description: SANGER: Inhibition of human ABC-1 cell growth in a cell viability assay.

ACHN = assay: cells; assay type: functional, cell-based; conditions: Homo sapiens;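 also: cell viability read-out used to gauge how strongly growth of human ACHN cells is suppressed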
Description: SANGER: Inhibition of human ACHN cell growth in a cell viability assay.

ARH-77 = assay: cells; assay type: functional, cell-based, Homo sapiens; conditions: Homo sapiens, ARH-77;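 also: growth inhibition of ARH-77 cells, read out by a cell viability assay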
Description: SANGER: Inhibition of human ARH-77 cell growth in a cell viability assay.

CAL-148 = assay: cells; assay type: functional, cell-based, Homo sapiens; conditions: Homo sapiens, CAL-148
Description: SANGER: Inhibition of human CAL-148 cell growth in a cell viability assay.

CAL-27 = assay: cells; assay type: functional, cell-based; conditions: Homo sapiens;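 also: Viability-based readout, IC50 reflecting inhibition of CAL-27 cell growth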
Description: SANGER: Inhibition of human CAL-27 cell growth in a cell viability assay.

TE-441-T = assay: cells; assay type: functional, cell-based, Homo sapiens; conditions: Homo sapiens, TE-441-T
Description: SANGER: Inhibition of human TE-441-T cell growth in a cell viability assay.

UMUC3 = assay: cells; assay type: functional, cell-based; conditions: Homo sapiens;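 also: growth inhibition of human UM-UC-3 cells, read out with a cell viability assay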
Description: SANGER: Inhibition of human UM-UC-3 cell growth in a cell viability assay.

VMRC-RCZ = assay: cells; assay type: functional, cell-based; conditions: Homo sapiens
Description: SANGER: Inhibition of human VMRC-RCZ cell growth in a cell viability assay.

YKG-1 = assay: cells; assay type: functional, cell-based; conditions: Homo sapiens;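 also: cell growth inhibition, read out with a viability assay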
Description: SANGER: Inhibition of human YKG-1 cell growth in a cell viability assay.

CESS = assay: SANGER: Inhibition of human CESS cell growth in a cell viability assay.; assay type: functional, cell-based; conditions: Homo sapiens, CESS

Measured: pIC50

COC(=O)[C@H](CCSC)NC(=O)c1ccc(NC[C@@H](N)CS)cc1-c1ccccc1
< 5.99: all assays above

O=S(=O)(O)c1ccc2cc(/N=N/c3cc(S(=O)(=O)O)c4cccnc4c3O)ccc2c1
< 4.80: all assays above

Cc1ccc(C(=O)Nc2ccc(CN3CCN(C)CC3)c(C(F)(F)F)c2)cc1C#Cc1cnc2cccnn12 [PONATINIB]
6.46: A2780
6.35: SW1088
6.53: A 172 | ACHN
not listed: VMRC-RCZ
< 6.29: all other assays above
